Our source for the Ki values is US8404679B2, “Pyrrolidine derivatives as NK2 receptor antagonists” (Hoffmann-La Roche Inc., priority 2008, dated 2013).

In this assay the target is T1, human NK2 receptor (Homo sapiens, UniProt P21452).
T1 construct: purchased Perkin Elmer biosignal Inc. 6110510
T1 sequence (P21452 1-398): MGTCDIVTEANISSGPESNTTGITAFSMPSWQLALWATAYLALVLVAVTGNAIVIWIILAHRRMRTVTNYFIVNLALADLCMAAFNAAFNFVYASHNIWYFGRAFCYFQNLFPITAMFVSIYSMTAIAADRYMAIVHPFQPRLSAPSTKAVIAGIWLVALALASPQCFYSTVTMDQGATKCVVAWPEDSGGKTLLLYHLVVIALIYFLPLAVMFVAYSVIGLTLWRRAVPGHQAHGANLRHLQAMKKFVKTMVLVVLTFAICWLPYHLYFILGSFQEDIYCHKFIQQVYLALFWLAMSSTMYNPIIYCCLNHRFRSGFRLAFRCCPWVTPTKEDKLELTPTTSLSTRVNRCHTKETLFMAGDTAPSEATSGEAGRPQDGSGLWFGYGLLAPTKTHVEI
Briefly: [3H]SR48968 competition binding assay. The settings on record: [3H]SR48968 displacement, membranes of CHO cells stably expressing recombinant human NK2 receptor; Ki from IC50 by Cheng-Prussoff. The gist of the method:
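Membranes from CHO cells stably expressing recombinant human NK2 were incubated 75 min at RT with [3H]SR48968 at its KD and 10 compound concentrations (0.0003–10 μM) in Tris-HCl pH 7.4, MnCl2, chymostatin, BSA. Filter-bound radioactivity was counted; Hill-fitted IC50 converted to Ki via Cheng-Prusoff.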
As a reminder, the Ki is the equilibrium dissociation constant of an inhibitor or competing ligand from its target. Consider `COc1ccc(C(=O)N(C)[C@@H]2CN(C(=O)c3cc(Cl)nc(Cl)c3)C[C@H]2c2ccc(Cl)c(Cl)c2)cc1C(F)(F)F` (racemic) [Example 52, rac-N-[(3S,4R)-4-(3,4-Dichloro-phenyl)-1-(2,6-dichloro-pyridine-4-carbonyl)-pyrrolidin-3-yl]-4-methoxy-N-methyl-3-trifluoromethyl-benzamide], for which the Ki came out at 3.72 nM.

As to `CCN(C(=O)c1ccc(OC)c(C(F)(F)F)c1)[C@@H]1CN(C(=O)N2CCN(S(C)(=O)=O)CC2)C[C@H]1c1ccc(Cl)c(Cl)c1` (racemic) [Example 39, rac-N-[(3S,4R)-4-(3,4-Dichloro-phenyl)-1-(4-methanesulfonyl-piperazine-1-carbonyl)-pyrrolidin-3-yl]-N-ethyl-4-methoxy-3-trifluoromethyl-benzamide], the inhibition constant (Ki) stood at 68.3 nM. As for `CN(C(=O)c1ccc(F)nc1)[C@@H]1CN(C(=O)c2ccc(C#N)cc2)C[C@H]1c1ccc(Cl)c(Cl)c1` (racemic) [Example 85, rac-N-[(3S,4R)-1-(4-Cyano-benzoyl)-4-(3,4-dichloro-phenyl)-pyrrolidin-3-yl]-6-fluoro-N-methyl-nicotinamide], the figure is 82.1 nM. To `COc1ccc(C(=O)N(C)[C@@H]2CN(C(=O)c3ccc(C(F)(F)F)cc3)C[C@H]2c2ccc(Cl)c(Cl)c2)cc1C(F)(F)F` (racemic) [Example 50, rac-N-[(3S,4R)-4-(3,4-Dichloro-phenyl)-1-(4-trifluoromethyl-benzoyl)-pyrrolidin-3-yl]-4-methoxy-N-methyl-3-trifluoromethyl-benzamide] belongs 6.3 nM; to `COc1ccc(C(=O)N(C)[C@@H]2CN(C(=O)c3ccc(C#N)cc3)C[C@H]2c2ccc(Cl)c(Cl)c2)cn1` (racemic) [Example 86, rac-N-[(3S,4R)-1-(4-Cyano-benzoyl)-4-(3,4-dichloro-phenyl)-pyrrolidin-3-yl]-6-methoxy-N-methyl-nicotinamide], 17.8 nM. As for `CN(C(=O)c1ccc(-n2cccc2)cc1)[C@@H]1CN(C(=O)N2CCN(S(C)(=O)=O)CC2)C[C@H]1c1ccc(Cl)c(Cl)c1` (racemic) [Example 30, rac-N-[(3S,4R)-4-(3,4-Dichloro-phenyl)-1-(4-methanesulfonyl-piperazine-1-carbonyl)-pyrrolidin-3-yl]-N-methyl-4-pyrrol-1-yl-benzamide], the figure is 4.59 nM. In the case of `CN(C(=O)c1ccc(OCC2CC2)cc1)[C@@H]1CN(C(=O)c2ccc(C#N)cc2)C[C@H]1c1ccc(Cl)c(Cl)c1` (racemic) [Example 75, rac-N-[(3S,4R)-1-(4-Cyano-benzoyl)-4-(3,4-dichloro-phenyl)-pyrrolidin-3-yl]-4-cyclopropylmethoxy-N-methyl-benzamide], the Ki is 23 nM. As for `COc1ccc(C(=O)N(C)[C@H]2CN(C(=O)C3CCN(CCC#N)CC3)C[C@@H]2c2ccc(Cl)c(Cl)c2)cc1C(F)(F)F` (racemic) [Example 142, N-[(3RS,4SR)-1-[1-(2-Cyano-ethyl)-piperidine-4-carbonyl]-4-(3,4-dichloro-phenyl)-pyrrolidin-3-yl]-4-methoxy-N-methyl-3-trifluoromethyl-benzamide], the figure is 0.4 nM. To `CN(C(=O)c1ccc(Cl)c(C(F)(F)F)c1)[C@@H]1CN(C(=O)c2ccc(C#N)cc2)C[C@H]1c1ccc(Cl)c(Cl)c1` (racemic) [Example 72, rac-4-Chloro-N-[(3S,4R)-1-(4-cyano-benzoyl)-4-(3,4-dichloro-phenyl)-pyrrolidin-3-yl]-N-methyl-3-trifluoromethyl-benzamide] belongs 0.58 nM; to `CN(C(=O)c1cccc(C#N)c1)[C@@H]1CN(C(=O)N2CCN(S(C)(=O)=O)CC2)C[C@H]1c1ccc(Cl)c(Cl)c1` (racemic) [Example 15, rac-3-Cyano-N-[(3S,4R)-4-(3,4-dichloro-phenyl)-1-(4-methanesulfonyl-piperazine-1-carbonyl)-pyrrolidin-3-yl]-N-methyl-benzamide], 65.2 nM. `COc1nc(C(=O)N(C)[C@@H]2CN(C(=O)c3ccc(C#N)cc3)C[C@H]2c2ccc(Cl)c(Cl)c2)ccc1C#N` (racemic) [Example 71, rac-5-Cyano-6-methoxy-pyridine-2-carboxylic acid [(3S,4R)-1-(4-cyano-benzoyl)-4-(3,4-dichloro-phenyl)-pyrrolidin-3-yl]-methyl-amide]: the Ki amounted to 34.4 nM. Take `COc1ccc(C(=O)N(C)[C@H]2CN(C(=O)C3CCN(C(=O)OC(C)(C)C)CC3)C[C@@H]2c2ccc(Cl)c(Cl)c2)cc1C(F)(F)F` (racemic) [Example 132, 4-{(3SR,4RS)-3-(3,4-Dichloro-phenyl)-4-[(4-methoxy-3-trifluoromethyl-benzoyl)-methyl-amino]-pyrrolidine-1-carbonyl}-piperidine-1-carboxylic acid tert-butyl ester]: the Ki was 1.3 nM.

Regarding `COc1ccc(C(=O)N(C)[C@@H]2CN(C(=O)N3CCN(S(C)(=O)=O)CC3)C[C@H]2c2ccc(Cl)cc2)cc1C(F)(F)F` (racemic) [Example 6, rac-N-[(3S,4R)-4-(4-Chloro-phenyl)-1-(4-methanesulfonyl-piperazine-1-carbonyl)-pyrrolidin-3-yl]-4-methoxy-N-methyl-3-trifluoromethyl-benzamide], the Ki was determined as 10.7 nM. To `CN(C(=O)c1ccc(Cl)c(C(F)(F)F)c1)[C@H]1CN(C(=O)C2CCNCC2)C[C@@H]1c1ccc(Cl)cc1` (racemic) [Example 160, 4-Chloro-N-[(3RS,4SR)-4-(4-chloro-phenyl)-1-(piperidine-4-carbonyl)-pyrrolidin-3-yl]-N-methyl-3-trifluoromethyl-benzamide] belongs 5 nM. `CN(C(=O)c1ccc(F)c(OC(F)(F)F)c1)[C@H]1CN(C(=O)C2CCN(C(=O)C3(C)CC3)CC2)C[C@@H]1c1ccc(Cl)c(Cl)c1` (racemic) [Example 98, N-{(3RS,4SR)-4-(3,4-Dichloro-phenyl)-1-[1-(1-methyl-cyclopropanecarbonyl)-piperidine-4-carbonyl]-pyrrolidin-3-yl}-4-fluoro-N-methyl-3-trifluoromethoxy-benzamide]: the Ki was determined as 0.9 nM. As for `CN(C(=O)c1ccc(Cl)c(Br)c1)[C@H]1CN(C(=O)C2CCN(C(=O)C3(C)CC3)CC2)C[C@@H]1c1ccc(Cl)c(Cl)c1` (racemic) [Example 171, 3-Bromo-4-chloro-N-{(3RS,4SR)-4-(3,4-dichloro-phenyl)-1-[1-(1-methyl-cyclopropanecarbonyl)-piperidine-4-carbonyl]-pyrrolidin-3-yl}-N-methyl-benzamide], the figure is 0.8 nM; as for `COc1ccc(C(=O)N(C)[C@H]2CN(C(=O)C3CCN(CCC(F)(F)F)CC3)C[C@@H]2c2ccc(Cl)cc2)cc1C(F)(F)F` (racemic) [Example 110, N-{(3RS,4SR)-4-(4-Chloro-phenyl)-1-[1-(3,3,3-trifluoro-propyl)-piperidine-4-carbonyl]-pyrrolidin-3-yl}-4-methoxy-N-methyl-3-trifluoromethyl-benzamide], 0.8 nM; as for `COc1ccc(C(=O)N(C)[C@@H]2CN(C(=O)c3ccc(C#N)cc3)C[C@H]2c2ccc(Cl)c(Cl)c2)cc1C(C)(C)C` (racemic) [Example 74, rac-3-tert-Butyl-N-[(3S,4R)-1-(4-cyano-benzoyl)-4-(3,4-dichloro-phenyl)-pyrrolidin-3-yl]-4-methoxy-N-methyl-benzamide], 1.3 nM. In the case of `CN(C(=O)c1ccc(Cl)c(C2CC2)c1)[C@H]1CN(C(=O)C2CCN(C(=O)C3(C)CC3)CC2)C[C@@H]1c1ccc(Cl)c(Cl)c1` (racemic) [Example 173, 4-Chloro-3-cyclopropyl-N-{(3RS,4SR)-4-(3,4-dichloro-phenyl)-1-[1-(1-methyl-cyclopropanecarbonyl)-piperidine-4-carbonyl]-pyrrolidin-3-yl}-N-methyl-benzamide], the inhibition constant Ki was 1.7 nM. As for `CN(C(=O)c1ccc(C(F)(F)F)nc1)[C@@H]1CN(C(=O)c2ccc(C#N)cc2)C[C@H]1c1ccc(Cl)c(Cl)c1` (racemic) [Example 81, rac-N-[(3S,4R)-1-(4-Cyano-benzoyl)-4-(3,4-dichloro-phenyl)-pyrrolidin-3-yl]-N-methyl-6-trifluoromethyl-nicotinamide], the figure is 5.8 nM. For the molecule `CN(C(=O)c1ccc(Cl)nc1)[C@@H]1CN(C(=O)c2ccc(C#N)cc2)C[C@H]1c1ccc(Cl)c(Cl)c1` (racemic) [Example 78, rac-6-Chloro-N-[(3S,4R)-1-(4-cyano-benzoyl)-4-(3,4-dichloro-phenyl)-pyrrolidin-3-yl]-N-methyl-nicotinamide], the Ki worked out at 7.8 nM.

On to `COc1ccc(C(=O)N(C)[C@@H]2CN(C(=O)N3CCN(S(C)(=O)=O)[C@H](C)C3)C[C@H]2c2ccc(Cl)c(Cl)c2)cc1C(F)(F)F` [Example 43], for which the Ki came out at 2.23 nM. As for `CC(C)C(C(=O)N(C)[C@H]1CN(C(=O)C2CCN(C(=O)C3(C)CC3)CC2)C[C@@H]1c1ccc(Cl)c(Cl)c1)c1ccc(F)cc1` (mixture of isomers) [Example 116, N-{(3RS,4SR)-4-(3,4-Dichloro-phenyl)-1-[1-(1-methyl-cyclopropanecarbonyl)-piperidine-4-carbonyl]-pyrrolidin-3-yl}-2-(4-fluoro-phenyl)-3,N-dimethyl-butyramide], the figure is 49.7 nM.
